The results in this text go back to patent publication US20160090556A1, “PRODUCTS COMPRISING MALODOR REDUCTION MATERIALS” (The Procter & Gamble Company, priority 2014, published 2016).

One data set in a line: Probability of Ingredient Color Instability. Format: physicochemical.
Details: not given
For `CC1=CCC(C23CCCC(C)(C2)OC3)C1(C)C` (stereo not drawn) [Material 571], the “Probability of Ingredient Color Instability (Comment Code E/F)” value (“Probability” for short) is given as “F (Probability of Ingredient Color Instability<71%)”. On to `COC(=O)c1ccccc1NC(O)CC(C)c1ccccc1` (stereo not drawn) [Material 1093], for which the “Probability” value is recorded as “F (Probability of Ingredient Color Instability<71%)”.

In the case of `CC1(C)C2CC=C(CC=O)C1C2` (stereo not drawn) [Material 973], the “Probability” value is “F (Probability of Ingredient Color Instability<71%)”.

The data set is the same for the next values; noted with them: class code letter within Comment Code.
For the compound `CC1(C)C2CC=C(C=O)C1C2` (stereo not drawn) [Material 70], the “Probability” value is on record as “F (Probability of Ingredient Color Instability<71%)”.

The nature of the next data set: Liquid dish neat product liquid-air partition coefficient.
Details: not given
Type of data set: physicochemical.
As for `C=CC(C)=CCC=C(C)CCC=C(C)C` [Material 710], the “Log of liquid dish neat product liquid-air partition coefficient (Comment Code K/L)” value (from here on “Log … (Comment Code K/L)”) is on record as “K (Log of liquid dish neat product liquid-air partition coefficient greater than or equal to −7)”. Still for that read-out and setting: in the case of `C=C1C=CC(C(C)CCC=C(C)C)CC1` (stereo not drawn) [Material 614] it was “K (Log of liquid dish neat product liquid-air partition coefficient greater than or equal to −7)”. On the same count and under the same terms, next, `CC(=O)OC(C)CCC=C(C)CCC=C(C)C` (racemic) [Material 881]: “K (Log of liquid dish neat product liquid-air partition coefficient greater than or equal to −7)”; `CC1=CC2C(C(C)C)CCC(C)(O)C2CC1` (stereo not drawn) [Material 716]: “K (Log of liquid dish neat product liquid-air partition coefficient greater than or equal to −7)”. Still for that read-out and setting: next, `CC1=CC2CC(C3OCCO3)C1CC2C(C)C` (stereo not drawn) [Material 912]: “K (Log of liquid dish neat product liquid-air partition coefficient greater than or equal to −7)”; `COCCOC(C)OCc1ccccc1` (stereo not drawn) [Material 768]: “K (Log of liquid dish neat product liquid-air partition coefficient greater than or equal to −7)”. `CC(C)Cc1ccc2ccccc2n1` [Material 849]: the “Log … (Comment Code K/L)” value was “K (Log of liquid dish neat product liquid-air partition coefficient greater than or equal to −7)”.

For `CC(=O)C1CC/C(C)=C\CC/C(C)=C\C/C=C/1C` (stereo not drawn) [Material 1095], the “Log … (Comment Code K/L)” value is “K (Log of liquid dish neat product liquid-air partition coefficient greater than or equal to −7)”. On the same count and under the same terms, in the case of `CC1CCC2C(C2(C)C)C12COC(C)(C)OC2` (stereo not drawn) [Material 1036] it was “K (Log of liquid dish neat product liquid-air partition coefficient greater than or equal to −7)”; in that of `C=CCc1ccc2c(c1)OCO2` [Material 1021], “K (Log of liquid dish neat product liquid-air partition coefficient greater than or equal to −7)”; in that of `C=CC(C)=CCC=C(C)CCC=C(C)C=O` [Material 691], “K (Log of liquid dish neat product liquid-air partition coefficient greater than or equal to −7)”. Still for that read-out and setting: in the case of `CC1=CCOC(c2ccccc2)C1` (stereo not drawn) [Material 1016] it was “K (Log of liquid dish neat product liquid-air partition coefficient greater than or equal to −7)”; in that of `CC1C(C)(C)C2=C(C(=O)CCC2)C1(C)C` (stereo not drawn) [Material 572], “K (Log of liquid dish neat product liquid-air partition coefficient greater than or equal to −7)”. Still for that read-out and setting: next, `CCC(C)C(=O)OCCc1ccccc1` (stereo not drawn) [Material 954]: “K (Log of liquid dish neat product liquid-air partition coefficient greater than or equal to −7)”.

Still in this data set, the particulars now being: class code letter within Comment Code.
As for `C=C(C)C1CCC(C)C(OC(C)=O)C1` (stereo not drawn) [Material 444], the “Log … (Comment Code K/L)” value was “K (Log of liquid dish neat product liquid-air partition coefficient greater than or equal to −7)”. The same measure, in the same setting: in the case of `COC1CCCCCCCCCCC1` [Material 9] it was “K (Log of liquid dish neat product liquid-air partition coefficient greater than or equal to −7)”; in that of `CC(=O)OC1(C)CCC(=C(C)C)CC1` (stereo not drawn) [Material 317], “K (Log of liquid dish neat product liquid-air partition coefficient greater than or equal to −7)”. In the case of `O=C1CCCCCCCCCCCCCCO1` [Material 370], the “Log … (Comment Code K/L)” value is “K (Log of liquid dish neat product liquid-air partition coefficient greater than or equal to −7)”.

Turning to `C/C=C1/CC2CC1C1CCC(=O)OC21` (stereo not drawn) [Material 353], the “Log … (Comment Code K/L)” value is reported as “K (Log of liquid dish neat product liquid-air partition coefficient greater than or equal to −7)”. For `C=CCCCCCCC/C=C/CC#N` [Material 137], the “Log … (Comment Code K/L)” value is on record as “K (Log of liquid dish neat product liquid-air partition coefficient greater than or equal to −7)”. With `CCCCCCCCCC(OCC)OCC` [Material 473], the “Log … (Comment Code K/L)” value was “K (Log of liquid dish neat product liquid-air partition coefficient greater than or equal to −7)”. Same read-out and setting: next, `Cc1cccc(CC(C)(C)CO)c1` [Material 140]: “K (Log of liquid dish neat product liquid-air partition coefficient greater than or equal to −7)”. On the same count and under the same terms, next, `C=CCCCCCCCCC#N` [Material 352]: “K (Log of liquid dish neat product liquid-air partition coefficient greater than or equal to −7)”; `CC/C=C\CCOC(=O)c1ccccc1` [Material 541]: “K (Log of liquid dish neat product liquid-air partition coefficient greater than or equal to −7)”; `CCCCCCCCCCOC(=O)CC` [Material 471]: “K (Log of liquid dish neat product liquid-air partition coefficient greater than or equal to −7)”. The same measure, in the same setting: next, `c1ccc2occc2c1` [Material 493]: “K (Log of liquid dish neat product liquid-air partition coefficient greater than or equal to −7)”; `C=CCc1ccc(O)c(OC)c1` [Material 375]: “K (Log of liquid dish neat product liquid-air partition coefficient greater than or equal to −7)”; `CC(C)=C1CCC(C)(O)CC1` (stereo not drawn) [Material 318]: “K (Log of liquid dish neat product liquid-air partition coefficient greater than or equal to −7)”. On to `O=C1CCCCCCCCCCCCCCCO1` [Material 277], for which the “Log … (Comment Code K/L)” value is listed as “K (Log of liquid dish neat product liquid-air partition coefficient greater than or equal to −7)”. On the same count and under the same terms, next, `CC(C)C(=O)OC1CC2CC1C1C=CCC21` (stereo not drawn) [Material 487]: “K (Log of liquid dish neat product liquid-air partition coefficient greater than or equal to −7)”. The same measure, in the same setting: next, `CCC(=O)OCC=Cc1ccccc1` [Material 548]: “K (Log of liquid dish neat product liquid-air partition coefficient greater than or equal to −7)”; `COc1ccccc1-c1ccccc1` [Material 22]: “K (Log of liquid dish neat product liquid-air partition coefficient greater than or equal to −7)”. On the same count and under the same terms, next, `c1ccc(Oc2ccccc2)cc1` [Material 428]: “K (Log of liquid dish neat product liquid-air partition coefficient greater than or equal to −7)”; `C=CCCCCCCCCC(=O)OCC` [Material 381]: “K (Log of liquid dish neat product liquid-air partition coefficient greater than or equal to −7)”; `CC(C)C1OC2(CCCC2)OCC1(C)C` (stereo not drawn) [Material 25]: “K (Log of liquid dish neat product liquid-air partition coefficient greater than or equal to −7)”.

For the compound `CC1CCCCCCCCCCCCC(=O)C1` (stereo not drawn) [Material 79], the “Log … (Comment Code K/L)” value is “K (Log of liquid dish neat product liquid-air partition coefficient greater than or equal to −7)”.

As for `CCCCCCCCCC(=O)OCC` [Material 397], the “Log … (Comment Code K/L)” value was “K (Log of liquid dish neat product liquid-air partition coefficient greater than or equal to −7)”. Still for that read-out and setting: next, `CCCCCCC1C(=O)CCC1C(=O)OC` (stereo not drawn) [Material 450]: “K (Log of liquid dish neat product liquid-air partition coefficient greater than or equal to −7)”.

The data set is the same for the next values; noted with them: code letters K, L.
As to `CCC(C)(O)/C=C/C=C(C)C` (stereo not drawn) [Material 81], the “Comment Code: Log of liquid dish neat product liquid-air partition coefficient” value (shortened to “Comment Code: Log”) is “K (Log of liquid dish neat product liquid-air partition coefficient greater than or equal to −7)”. In the case of `C/C=C1/CC2CC1C1CCC(=O)OC21` (stereo not drawn) [Material 353], the “Comment Code: Log” value is given as “K (Log of liquid dish neat product liquid-air partition coefficient greater than or equal to −7)”. On the same count and under the same terms, next, `CC1=C(C/C=C(\C)C=O)C(C)(C)CCC1` [Material 602]: “K (Log of liquid dish neat product liquid-air partition coefficient greater than or equal to −7)”; `CC(C)c1ccc(CC=O)cc1` [Material 977]: “K (Log of liquid dish neat product liquid-air partition coefficient greater than or equal to −7)”. On to `CC=Cc1ccc(OC(C)=O)c(OC)c1` [Material 213], for which the “Comment Code: Log” value is given as “K (Log of liquid dish neat product liquid-air partition coefficient greater than or equal to −7)”. Same read-out and setting: next, `CC(C)C(=O)OC1CC2CC1C1C=CCC21` (stereo not drawn) [Material 487]: “K (Log of liquid dish neat product liquid-air partition coefficient greater than or equal to −7)”.

In the case of `C=CC(C)(CCC=C(C)C)OC=O` (stereo not drawn) [Material 150], the “Comment Code: Log” value was “K (Log of liquid dish neat product liquid-air partition coefficient greater than or equal to −7)”. The same measure, in the same setting: next, `CCCOC(=O)[C@H](C)OC(C)(C)CC` [Material 1030]: “K (Log of liquid dish neat product liquid-air partition coefficient greater than or equal to −7)”; `C=CC(C)(O)CCC=C(C)C` (stereo not drawn) [Material 157]: “K (Log of liquid dish neat product liquid-air partition coefficient greater than or equal to −7)”.
